# Assay results published in the supplement of paper PMC4862054.
# Experiments:
# Conditions in all cases: incubation time: 72 h
# BT-474 = assay: normalised viability (% of control), CellTiter-Blue; higher = more viable cells (about 100 = DMSO control)
# Description: (§1)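 DSRT, CellTiter-Blue viability, 72 h incubation. Signal is normalised to DMSO and benzethonium chloride controls. Value is the normalised response at dose 3.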
# BT-549 [1] = assay: as above
# Description: as §1
# CAL-120 = assay: as above
# Description: as §1
# CAL-148 = assay: as above
# Description: as §1
# CAL-51 = assay: as above
# Description: as §1
# CAL-85-1 [2] = assay: as above
# Description: as §1
# DU-4475 [3] = assay: as above
# Description: as §1
# HCC1599 [4] = assay: as above
# Description: as §1
# HCC1937 = assay: as above
# Description: as §1
# HDQ-P1 = assay: as above
# Description: as §1
# Hs578T [5] = assay: as above
# Description: as §1
# MDA-MB-231 [6] = assay: as above
# Description: as §1
# MDA-MB-436 = assay: as above
# Description: as §1
# MDA-MB-453 [7] = assay: as above
# Description: as §1
# MDA-MB-468 [8] = assay: as above
# Description: as §1
# MFM-223 [9] = assay: as above
# Description: as §1
# SK-BR-3 = assay: as above
# Description: as §1
# BT-549 [10] = assay: drug sensitivity score (DSS), CellTox Green (DSS (AUC-based score)); higher = stronger drug effect (viability inhibition or cytotoxicity); extreme values may be limits of the assay
# How it was run: (§2)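 Compound was dispensed into 384-well plates at 5 concentrations in 10-fold steps spanning a 10,000-fold range chosen for each compound, and 20 µl of breast cancer cell suspension was added before 72 h of incubation. CellTox Green fluorescence was read at 485/520 nm, followed by CellTiter-Glo luminescence after 10 min at room temperature. Values on each plate were normalised to 0.1 % DMSO and a positive kill control. The drug sensitivity score came from the area under the fitted dose-response curve.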
# DU-4475 [11] = assay: as above
# How it was run: as §2
# HCC1599 [12] = assay: as above
# How it was run: as §2
# Hs578T [13] = assay: as above
# How it was run: as §2
# MDA-MB-231 [14] = assay: as above
# How it was run: as §2
# MDA-MB-453 [15] = assay: as above
# How it was run: as §2
# MDA-MB-468 [16] = assay: as above
# How it was run: as §2
# MFM-223 [17] = assay: as above
# How it was run: as §2
# CAL-85-1 [18] = assay: as above
# How it was run: as §2
smiles,measurement,setting,value
Nc1nc(=O)c2c([nH]1)NCC(CNc1ccc(C(=O)N[C@@H](CCC(=O)O)C(=O)O)cc1)N2C=O (mixture of isomers) [Folinic acid],normalised viability,BT-474; 9.9 nM,121%
same,normalised viability,BT-549 [1]; 9.9 nM,101%
same,normalised viability,CAL-120; 9.9 nM,111%
same,normalised viability,CAL-148; 0.99 nM,88.3%
same,normalised viability,CAL-51; 0.99 nM,98.4%
same,normalised viability,CAL-85-1 [2]; 0.99 nM,106%
same,normalised viability,DU-4475 [3]; 0.99 nM,105%
same,normalised viability,HCC1599 [4]; 9.9 nM,108%
same,normalised viability,HCC1937; 9.9 nM,110%
same,normalised viability,HDQ-P1; 0.99 nM,140%
same,normalised viability,Hs578T [5]; 9.9 nM,96%
same,normalised viability,MDA-MB-231 [6]; 9.9 nM,103%
same,normalised viability,MDA-MB-436; 9.9 nM,128%
same,normalised viability,MDA-MB-453 [7]; 0.99 nM,104%
same,normalised viability,MDA-MB-468 [8]; 9.9 nM,119%
same,normalised viability,MFM-223 [9]; 9.9 nM,95.5%
same,normalised viability,SK-BR-3; 9.9 nM,104%
O=C(Nc1c[nH]nc1-c1nc2ccc(CN3CCOCC3)cc2[nH]1)NC1CC1 [AT9283],normalised viability,BT-474; 100 nM,112%
same,normalised viability,BT-549 [1]; 100 nM,86%
same,normalised viability,CAL-120; 100 nM,57.3%
same,normalised viability,CAL-148; 10 nM,82.7%
same,normalised viability,CAL-51; 10 nM,100%
same,normalised viability,CAL-85-1 [2]; 10 nM,85.7%
same,normalised viability,DU-4475 [3]; 10 nM,97.5%
same,normalised viability,HCC1599 [4]; 100 nM,94.8%
same,normalised viability,HCC1937; 100 nM,60.9%
same,normalised viability,HDQ-P1; 10 nM,112%
same,normalised viability,Hs578T [5]; 100 nM,64.4%
same,normalised viability,MDA-MB-231 [6]; 100 nM,75.2%
same,normalised viability,MDA-MB-436; 100 nM,99%
same,normalised viability,MDA-MB-453 [7]; 10 nM,82.5%
same,normalised viability,MDA-MB-468 [8]; 100 nM,29.4%
same,normalised viability,MFM-223 [9]; 100 nM,64%
same,normalised viability,SK-BR-3; 100 nM,53%
same,drug sensitivity score,BT-549 [10],0
same,drug sensitivity score,DU-4475 [11],0
same,drug sensitivity score,HCC1599 [12],0
same,drug sensitivity score,Hs578T [13],0.649
same,drug sensitivity score,MDA-MB-231 [14],14.3
same,drug sensitivity score,MDA-MB-453 [15],0
same,drug sensitivity score,MDA-MB-468 [16],13.2
same,drug sensitivity score,MFM-223 [17],0
COc1cc(CCc2cc(NC(=O)c3ccc(N4CC(C)NC(C)C4)cc3)n[nH]2)cc(OC)c1 (centres undefined) [AZD4547],normalised viability,BT-474; 10 nM,131%
same,normalised viability,BT-549 [1]; 10 nM,109%
same,normalised viability,CAL-120; 10 nM,94%
same,normalised viability,CAL-148; 1 nM,97.5%
same,normalised viability,CAL-51; 1 nM,103%
same,normalised viability,CAL-85-1 [2]; 1 nM,101%
same,normalised viability,DU-4475 [3]; 1 nM,100%
same,normalised viability,HCC1599 [4]; 10 nM,83.7%
same,normalised viability,HCC1937; 10 nM,91.8%
same,normalised viability,HDQ-P1; 1 nM,112%
same,normalised viability,Hs578T [5]; 10 nM,92.7%
same,normalised viability,MDA-MB-231 [6]; 10 nM,124%
same,normalised viability,MDA-MB-436; 10 nM,102%
same,normalised viability,MDA-MB-453 [7]; 1 nM,107%
same,normalised viability,MDA-MB-468 [8]; 10 nM,108%
same,normalised viability,MFM-223 [9]; 10 nM,59.2%
same,normalised viability,SK-BR-3; 10 nM,97.5%
same,drug sensitivity score,BT-549 [10],0
same,drug sensitivity score,CAL-85-1 [18],0
same,drug sensitivity score,DU-4475 [11],0
same,drug sensitivity score,HCC1599 [12],0
same,drug sensitivity score,Hs578T [13],0
same,drug sensitivity score,MDA-MB-231 [14],0
same,drug sensitivity score,MDA-MB-453 [15],0
same,drug sensitivity score,MDA-MB-468 [16],0
same,drug sensitivity score,MFM-223 [17],0
CCC/C=C/C=C/C(=O)O[C@H]1/C(=C/C(=O)OC)C[C@H]2C[C@H]([C@@H](C)O)OC(=O)C[C@H](O)C[C@@H]3C[C@H](OC(C)=O)C(C)(C)[C@](O)(C[C@@H]4C/C(=C/C(=O)OC)C[C@H](/C=C/C(C)(C)[C@]1(O)O2)O4)O3 [Bryostatin 1],normalised viability,BT-474; 100 nM,102%
same,normalised viability,BT-549 [1]; 1 nM,94.8%
same,normalised viability,CAL-120; 1 nM,85.4%
same,normalised viability,CAL-148; 0.1 nM,90.7%
same,normalised viability,CAL-51; 0.1 nM,102%
same,normalised viability,CAL-85-1 [2]; 0.1 nM,124%
same,normalised viability,DU-4475 [3]; 0.1 nM,92.1%
same,normalised viability,HCC1599 [4]; 1 nM,110%
same,normalised viability,HCC1937; 100 nM,103%
same,normalised viability,HDQ-P1; 0.1 nM,106%
same,normalised viability,Hs578T [5]; 1 nM,63%
same,normalised viability,MDA-MB-231 [6]; 100 nM,97.2%
same,normalised viability,MDA-MB-436; 1 nM,126%
same,normalised viability,MDA-MB-453 [7]; 0.1 nM,99%
same,normalised viability,MDA-MB-468 [8]; 100 nM,101%
same,normalised viability,MFM-223 [9]; 1 nM,98.7%
same,normalised viability,SK-BR-3; 100 nM,84.1%
same,drug sensitivity score,BT-549 [10],0
same,drug sensitivity score,CAL-85-1 [18],0
same,drug sensitivity score,DU-4475 [11],0
same,drug sensitivity score,HCC1599 [12],0
same,drug sensitivity score,Hs578T [13],0
same,drug sensitivity score,MDA-MB-231 [14],0
same,drug sensitivity score,MDA-MB-453 [15],0
same,drug sensitivity score,MDA-MB-468 [16],0
same,drug sensitivity score,MFM-223 [17],0
